Assay results: patent publication US20260042755A1, “GPR6 INVERSE AGONISTS” (MapLight Therapeutics, Inc., priority 2022, published 2026)

Experiments:
[1] = molecular target: T1, GPR3 (Homo sapiens, UniProt P46089); assay: GPR3 antagonist functional cAMP assay (LANCE Ultra cAMP TR-FRET, CHO cells stably expressing GPR3); format: cell-based; conditions: procedure of Example 24
T1 construct: expressed in transfected cells; host or cells: CHO cells
Summary of the method: (§1)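 Read-out was TR-FRET cAMP signal at 665 nm after 1 h at room temperature, following 45 min compound exposure at 37 °C. Assay buffer contained 0.1% BSA and 150 μM Ro 20-1724. Antagonist IC50s were fitted with a 4-parameter logistic against DMSO and reference controls.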

[2] = molecular target: T2, GPR6 (Homo sapiens, UniProt P46095); assay: GPR6 antagonist functional cAMP assay (LANCE Ultra cAMP TR-FRET, CHO cells stably expressing GPR6); format: cell-based; conditions: procedure of Example 24
T2 construct: expressed in transfected cells; host or cells: CHO cells
T2 sequence (P46095 whole entry): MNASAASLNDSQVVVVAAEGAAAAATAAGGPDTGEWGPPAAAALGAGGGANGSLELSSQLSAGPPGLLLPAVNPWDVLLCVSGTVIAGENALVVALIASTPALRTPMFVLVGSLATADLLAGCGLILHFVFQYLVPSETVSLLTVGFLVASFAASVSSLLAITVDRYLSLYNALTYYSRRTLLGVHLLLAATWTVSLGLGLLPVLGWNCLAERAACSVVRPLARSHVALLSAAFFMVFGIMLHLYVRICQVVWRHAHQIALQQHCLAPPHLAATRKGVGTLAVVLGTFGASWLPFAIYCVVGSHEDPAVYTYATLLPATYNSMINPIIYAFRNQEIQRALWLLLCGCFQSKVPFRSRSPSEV
Summary of the method: as §1

T1 sequence (P46089 whole entry, species assumed): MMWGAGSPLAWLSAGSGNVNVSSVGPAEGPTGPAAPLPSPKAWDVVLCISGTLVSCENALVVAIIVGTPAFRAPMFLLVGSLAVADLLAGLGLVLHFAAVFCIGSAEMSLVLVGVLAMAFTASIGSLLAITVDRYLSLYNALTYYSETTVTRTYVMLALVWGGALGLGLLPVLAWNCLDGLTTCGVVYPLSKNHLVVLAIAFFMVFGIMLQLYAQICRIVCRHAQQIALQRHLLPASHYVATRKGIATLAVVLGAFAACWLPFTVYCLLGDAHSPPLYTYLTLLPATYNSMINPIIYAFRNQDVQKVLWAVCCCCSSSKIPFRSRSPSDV

CC(C)(O)C(C)(O)c1cc2nc(N3CCC(Oc4ccc(F)cc4F)CC3)c(-c3cnn(CF)c3)nc2cn1 (stereo not drawn) [Compound 636, 2-{2-[4-(2,4-difluorophenoxy)-1-piperidyl]-3-[1-(fluoromethyl)-4-pyrazolyl]-1,4,6-triaza-7-naphthyl}-3-methyl-2,3-butanediol]
IC50 [1]: 1000 to 30000 nM
IC50 [2]: 100 to 1000 nM

CC(=O)N1CCc2nc(N3CCN(Cc4ccc(Cl)cc4Cl)CC3)c(-c3ccc(F)c(N)n3)nc2C1 [Compound 637, 1-[3-(6-amino-5-fluoro-2-pyridyl)-2-{4-[(2,4-dichlorophenyl)methyl]-1-piperazinyl}-5,6,7,8-tetrahydro-1,4,6-triaza-6-naphthyl]-1-ethanone]
IC50 [1]: 1000 to 30000 nM
IC50 [2]: 100 to 1000 nM

CC(=O)N1CCc2nc(N3CCC(C(=O)c4ccc(F)cc4F)CC3)c(-c3ccc(F)c(N)n3)nc2C1 [Compound 638, 1-{3-(6-amino-5-fluoro-2-pyridyl)-2-[4-(2,4-difluorobenzoyl)-1-piperidyl]-5,6,7,8-tetrahydro-1,4,6-triaza-6-naphthyl}-1-ethanone]
IC50 [1]: 1000 to 30000 nM
IC50 [2]: < 100 nM

CC(C)(O)C(=O)N1CCc2nc(N3CCC(Oc4ccc(F)cc4F)CC3)c(-c3ccc(F)c(N)n3)nc2C1 [Compound 639, 1-{3-(6-amino-5-fluoro-2-pyridyl)-2-[4-(2,4-difluorophenoxy)-1-piperidyl]-5,6,7,8-tetrahydro-1,4,6-triaza-6-naphthyl}-2-hydroxy-2-methyl-1-propanone]
IC50 [1]: 100 to 1000 nM
IC50 [2]: 100 to 1000 nM

COCC(O)c1cc2nc(-c3cnn(C)c3)c(N3CCC(Oc4ccc(F)cc4F)CC3)nc2cn1 (stereo not drawn) [Compound 644, 1-{3-[4-(2,4-difluorophenoxy)-1-piperidyl]-2-(1-methyl-4-pyrazolyl)-1,4,6-triaza-7-naphthyl}-2-methoxy-1-ethanol]
IC50 [1]: 100 to 1000 nM
IC50 [2]: < 100 nM

Cn1cc(-c2nc3cc(C(C)(O)CO)ncc3nc2N2CCC(Oc3ccc(F)cc3F)CC2)cn1 (stereo not drawn) [Compound 645, 2-{3-[4-(2,4-difluorophenoxy)-1-piperidyl]-2-(1-methyl-4-pyrazolyl)-1,4,6-triaza-7-naphthyl}-1,2-propanediol]
IC50 [1]: 1000 to 30000 nM
IC50 [2]: 100 to 1000 nM

CC(=O)N1CCc2nc(N3CCC(=Cc4ccccc4)CC3)c(-c3cnn(C)c3)nc2C1 [Compound 646, 1-[2-(4-benzylidene-1-piperidyl)-3-(1-methyl-4-pyrazolyl)-5,6,7,8-tetrahydro-1,4,6-triaza-6-naphthyl]-1-ethanone]
IC50 [1]: 1000 to 30000 nM
IC50 [2]: 100 to 1000 nM

CCn1cc(-c2nc3cnc(C(=O)C(C)(C)O)cc3nc2N2CCC(Oc3ccc(F)cc3F)CC2)cn1 [Compound 651, 1-{2-[4-(2,4-difluorophenoxy)-1-piperidyl]-3-(1-ethyl-4-pyrazolyl)-1,4,6-triaza-7-naphthyl}-2-hydroxy-2-methyl-1-propanone]
IC50 [1]: 1000 to 30000 nM
IC50 [2]: 100 to 1000 nM

COCC(C)(O)c1cc2nc(-c3cnn(C)c3)c(N3CCC(Oc4ccc(F)cc4F)CC3)nc2cn1 (stereo not drawn) [Compound 652, 2-{3-[4-(2,4-difluorophenoxy)-1-piperidyl]-2-(1-methyl-4-pyrazolyl)-1,4,6-triaza-7-naphthyl}-1-methoxy-2-propanol]
IC50 [1]: 1000 to 30000 nM
IC50 [2]: < 100 nM

CC(C)(O)C(C)(O)c1cc2nc(-c3cnn(C4CC4)c3)c(N3CCN(Cc4ccc(F)cc4F)CC3)nc2cn1 (stereo not drawn) [Compound 653, 2-[2-(1-cyclopropyl-4-pyrazolyl)-3-{4-[(2,4-difluorophenyl)methyl]-1-piperazinyl}-1,4,6-triaza-7-naphthyl]-3-methyl-2,3-butanediol]
IC50 [1]: 1000 to 30000 nM
IC50 [2]: 100 to 1000 nM

CCn1cc(-c2nc3cnc(C(C)(O)C(C)(C)O)cc3nc2N2CCN(Cc3ccc(F)cc3F)CC2)cn1 (stereo not drawn) [Compound 654, 2-(2-{4-[(2,4-difluorophenyl)methyl]-1-piperazinyl}-3-(1-ethyl-4-pyrazolyl)-1,4,6-triaza-7-naphthyl)-3-methyl-2,3-butanediol]
IC50 [1]: 1000 to 30000 nM
IC50 [2]: 100 to 1000 nM

CC(C)(O)C(C)(O)c1cc2nc(N3CCN(Cc4ccc(F)cc4F)CC3)c(-c3cnn(C(F)F)c3)nc2cn1 (stereo not drawn) [Compound 657, 2-{3-[1-(difluoromethyl)-4-pyrazolyl]-2-{4-[(2,4-difluorophenyl)methyl]-1-piperazinyl}-1,4,6-triaza-7-naphthyl}-3-methyl-2,3-butanediol]
IC50 [1]: 1000 to 30000 nM
IC50 [2]: 100 to 1000 nM

CC(=O)N1CCc2nc(N3CCC4(CC3)CC4c3ccc(F)cc3F)c(-c3cnn(C)c3)nc2C1 (stereo not drawn) [Compound 660, 1-(2-(1-(2,4-difluorophenyl)-6-azaspiro[2.5]octan-6-yl)-3-(1-methyl-1H-pyrazol-4-yl)-7,8-dihydropyrido[3,4-b]pyrazin-6(5H)-yl)ethan-1-one]
IC50 [1]: 1000 to 30000 nM
IC50 [2]: 1000 to 30000 nM

CC(C)(O)C(C)(O)c1cc2nc(-c3cnn(CF)c3)c(N3CCC(Oc4ccc(F)cc4F)CC3)nc2cn1 (stereo not drawn) [Compound 661, 2-{3-[4-(2,4-difluorophenoxy)-1-piperidyl]-2-[1-(fluoromethyl)-4-pyrazolyl]-1,4,6-triaza-7-naphthyl}-3-methyl-2,3-butanediol]
IC50 [1]: 1000 to 30000 nM
IC50 [2]: 100 to 1000 nM

N#CN1CCc2nc(N3CCC(Oc4ccc(F)cc4F)CC3)c(-c3ccc(F)c(N)n3)nc2C1 [Compound 671, 6-{6-cyano-2-[4-(2,4-difluorophenoxy)-1-piperidyl]-5,6,7,8-tetrahydro-1,4,6-triaza-3-naphthyl}-3-fluoro-2-pyridylamine]
IC50 [1]: 1000 to 30000 nM
IC50 [2]: < 100 nM

CC(C)(O)C(C)(O)c1cc2nc(-c3cnn(C(F)F)c3)c(N3CCC(Oc4ccc(F)cc4F)CC3)nc2cn1 (stereo not drawn) [Compound 674, 2-{2-[1-(difluoromethyl)-4-pyrazolyl]-3-[4-(2,4-difluorophenoxy)-1-piperidyl]-1,4,6-triaza-7-naphthyl}-3-methyl-2,3-butanediol]
IC50 [1]: 1000 to 30000 nM
IC50 [2]: < 100 nM

CC(C)(O)C(O)c1cncc2nc(-c3cnn(C(F)F)c3)c(N3CCN(Cc4ccc(F)cc4F)CC3)nc12 (stereo not drawn) [Compound 679, 1-{3-[1-(difluoromethyl)-4-pyrazolyl]-2-{4-[(2,4-difluorophenyl)methyl]-1-piperazinyl}-1,4,6-triaza-8-naphthyl}-2-methyl-1,2-propanediol]
IC50 [1]: 1000 to 30000 nM
IC50 [2]: 1000 to 30000 nM

CC(C)(O)[C@](C)(O)c1cc2nc(-c3cnn(C4CC4)c3)c(N3CCN(Cc4ccc(F)cc4F)CC3)nc2cn1 [Compound 683, (R)-2-[2-(1-cyclopropyl-4-pyrazolyl)-3-{4-[(2,4-difluorophenyl)methyl]-1-piperazinyl}-1,4,6-triaza-7-naphthyl]-3-methyl-2,3-butanediol]
IC50 [1]: 1000 to 30000 nM
IC50 [2]: 100 to 1000 nM

CC(C)(O)C(C)(O)c1cc2nc(-c3cnn(C(F)F)c3)c(N3CCN(Cc4ccccc4F)CC3)nc2cn1 (stereo not drawn) [Compound 684, 2-{2-[1-(difluoromethyl)-4-pyrazolyl]-3-{4-[(o-fluorophenyl)methyl]-1-piperazinyl}-1,4,6-triaza-7-naphthyl}-3-methyl-2,3-butanediol]
IC50 [1]: 1000 to 30000 nM
IC50 [2]: 100 to 1000 nM

COCC(O)c1cc2nc(N3CCN(Cc4ccc(F)cc4F)CC3)c(-c3cnn(C(F)F)c3)nc2cn1 (stereo not drawn) [Compound 687, 1-{3-[1-(difluoromethyl)-4-pyrazolyl]-2-{4-[(2,4-difluorophenyl)methyl]-1-piperazinyl}-1,4,6-triaza-7-naphthyl}-2-methoxy-1-ethanol]
IC50 [1]: 1000 to 30000 nM
IC50 [2]: 100 to 1000 nM

CC(C)(O)C(=O)c1cncc2nc(-c3cnn(C(F)F)c3)c(N3CCN(Cc4ccc(F)cc4F)CC3)nc12 [Compound 693, 1-{3-[1-(difluoromethyl)-4-pyrazolyl]-2-{4-[(2,4-difluorophenyl)methyl]-1-piperazinyl}-1,4,6-triaza-8-naphthyl}-2-hydroxy-2-methyl-1-propanone]
IC50 [1]: ≥ 30000 nM
IC50 [2]: 1000 to 30000 nM

Cn1cc(-c2nc3cnc(OCC(C)(C)O)cc3nc2N2CCC(Oc3ccc(F)cc3F)CC2)cn1 [Compound 696, 1-{2-[4-(2,4-difluorophenoxy)-1-piperidyl]-3-(1-methyl-4-pyrazolyl)-1,4,6-triaza-7-naphthyloxy}-2-methyl-2-propanol]
IC50 [1]: 1000 to 30000 nM
IC50 [2]: 100 to 1000 nM

CC(=O)N1CCc2nc(N3CCC(C(F)(F)c4ccc(F)cc4F)CC3)c(-c3cnn(C)c3)nc2C1 [Compound 698, 1-(2-(4-((2,4-difluorophenyl)difluoromethyl)piperidin-1-yl)-3-(1-methyl-1H-pyrazol-4-yl)-7,8-dihydropyrido[3,4-b]pyrazin-6(5H)-yl)ethan-1-one]
IC50 [1]: 1000 to 30000 nM
IC50 [2]: 100 to 1000 nM

CC(=O)N1CCc2nc(N3CCC(O)(Cc4ccc(F)cc4F)CC3)c(-c3cnn(C)c3)nc2C1 [Compound 699, 1-(2-(4-(2,4-difluorobenzyl)-4-hydroxypiperidin-1-yl)-3-(1-methyl-1H-pyrazol-4-yl)-7,8-dihydropyrido[3,4-b]pyrazin-6(5H)-yl)ethan-1-one]
IC50 [1]: 1000 to 30000 nM
IC50 [2]: 100 to 1000 nM

CC(C)(O)Cc1cc2nc(N3CCC(Oc4ccc(F)cc4F)CC3)c(-c3cnn(C(F)F)c3)nc2cn1 [Compound 700, 1-{3-[1-(difluoromethyl)-4-pyrazolyl]-2-[4-(2,4-difluorophenoxy)-1-piperidyl]-1,4,6-triaza-7-naphthyl}-2-methyl-2-propanol]
IC50 [1]: 1000 to 30000 nM
IC50 [2]: 100 to 1000 nM

COc1ccc(CNc2nc(-c3nc4c(nc3N3CCC(Cc5cc(F)ccc5F)CC3)CCN(C(C)=O)C4)ccc2F)cc1 [Compound 701, 1-(2-{4-[(2,5-difluorophenyl)methyl]-1-piperidyl}-3-(5-fluoro-6-{ [(p-methoxyphenyl)methyl]amino}-2-pyridyl)-5,6,7,8-tetrahydro-1,4,6-triaza-6-naphthyl)-1-ethanone]
IC50 [1]: 1000 to 30000 nM
IC50 [2]: 1000 to 30000 nM

CC(=O)N1CCc2nc(N3CCC(Cc4cc(F)ccc4F)CC3)c(-c3ccc(F)c(N)n3)nc2C1 [Compound 702, 1-[3-(6-amino-5-fluoro-2-pyridyl)-2-{4-[(2,5-difluorophenyl)methyl]-1-piperidyl}-5,6,7,8-tetrahydro-1,4,6-triaza-6-naphthyl]-1-ethanone]
IC50 [1]: 100 to 1000 nM
IC50 [2]: < 100 nM
